Reference: patent EP0535804A1, “Peptide compounds” (HITACHI CHEMICAL CO., LTD., priority 1991, dated 1993)
Ends that are not written are not given here.

Assays:
human endothelin 1 [1] = test: Enzymeimmuno competitive inhibition assay of endothelin 1 binding to peptide resin; conditions: 3 hours at room temperature
Description: After blocking those sites susceptible to nonspecific adsorption on the peptide resin obtained in (2) above with 0.2% skim milk solution, the peptide resin was immersed in 200 µl of human endothelin 1 solution (0.2 µg/ml) (prepared by dissolving in Dalbecco's phosphate buffered biological saline containing 0.1% skim milk and 0.1 % Tween 20). After allowing to react for 3 hours at room temperature while stirring gently, the resulting solution was used as sample solution (i).
Separate from the above, the wells of an ELISA microplate were coated overnight at 4°C with 200 µl of human endothelin 1 solution (1 wg/ml). […]
After washing the human endothelin 1 coated plate (ii) with washing buffer (Dalbecco's phosphate buffered biological saline containing 0.1% Tween), 50 µl of sample solution (i) was added followed immediately by the addition of 200 µl of anti-human endothelin 1 rabbit antibody solution (using Dalbecco's phosphate buffered biological saline containing 0.1% skim milk and 0.1% Tween as the dilution buffer). […] After similarly washing the plate and adding 200 µl of substrate solution (1 mg p-nitrophenyl phosphate/ml 1M diethanolamine buffer), the amount of p-nitrophenol released by the labelled enzyme present on the plate was determined by measuring the absorbance at 405 nm. […]

human endothelin 1 [2] = test: Binding activity of radioactive ligand (125I-human endothelin 1) to peptide resin; conditions: 125I-human endothelin 1 solution 0.131 ng/ml, 2 hours at room temperature, gamma counter
Description: After blocking the sites susceptible to adsorption on the peptide resin obtained in (2) above with 0.2% skim milk solution, the peptide was suspended in 100 ml of ^1251-human endothelin 1 (specific activity: 74 TBq- /mmol) solution (0.131 ng/ml) (prepared by dissolving in Dalbecco's phosphate buffered biological saline containing 0.1 % skim milk and 0.1 % Tween) and allowed to react for 2 hours at room temperature. Following the binding reaction, the peptide resin was thoroughly washed with washing buffer (Dalbecco's phosphate buffered biological saline containing 0.1 % Tween), and the radioactivity bound to the peptide resin was measured with a gamma counter.

## KRGFPP
Human endothelin 1 [1]; decrease of endothelin 1 antigen activity after binding to peptide resin pins, 0.2 µg/ml
  inhibitory activity: 21.1%
Human endothelin 1 [1]; remaining relative to before the binding reaction to the peptide resin pins, endothelin 1 solution 0.2 µg/ml, 200 µl
  antigen activity of human endothelin 1 in said sample solution (i): 78.9%
Human endothelin 1 [2]
  amount of human endothelin 1 bound to the peptide resin: 5.18 pg
